Source: PubChem BioAssay (NCI)
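Method: 48-hour compound exposure of cells in 96-well plates, five concentrations, linear interpolation of endpoints. GI50 marks 50% less growth. TGI is the concentration that stops growth completely.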

Experiments:
Test in all cases: NCI tumour cell line growth inhibition, 48 h
UACC-62 melanoma = system: UACC-62 melanoma
RXF 393 renal = system: RXF 393 renal
MOLT-4 leukemia = system: MOLT-4 leukemia
NCI/ADR-RES ovarian = system: NCI/ADR-RES ovarian
M14 melanoma = system: M14 melanoma
HS 578T breast = system: HS 578T breast
SNB-19 CNS = system: SNB-19 CNS
OVCAR-5 ovarian = system: OVCAR-5 ovarian
MDA-MB-435 = system: MDA-MB-435
CAKI-1 renal = system: CAKI-1 renal
CCRF-CEM leukemia = system: CCRF-CEM leukemia
A549 NSCLC = system: A549 NSCLC
SK-MEL-5 melanoma = system: SK-MEL-5 melanoma
K-562 leukemia = system: K-562 leukemia
COLO 205 colon = system: COLO 205 colon
ACHN renal = system: ACHN renal
MDA-MB-231 breast = system: MDA-MB-231 breast
SK-OV-3 ovarian = system: SK-OV-3 ovarian
BT-549 breast = system: BT-549 breast
HCC-2998 colon = system: HCC-2998 colon
MALME-3M melanoma = system: MALME-3M melanoma
HL-60(TB) leukemia = system: HL-60(TB) leukemia
HCT-15 colon = system: HCT-15 colon
SNB-75 CNS = system: SNB-75 CNS
OVCAR-3 ovarian = system: OVCAR-3 ovarian
NCI-H226 lung = system: NCI-H226 lung
SF-268 CNS = system: SF-268 CNS
NCI-H23 lung = system: NCI-H23 lung
A498 renal = system: A498 renal
MCF7 breast = system: MCF7 breast
EKVX NSCLC = system: EKVX NSCLC
SF-295 CNS = system: SF-295 CNS
NCI-H460 lung = system: NCI-H460 lung
OVCAR-8 ovarian = system: OVCAR-8 ovarian
SW-620 colon = system: SW-620 colon
RPMI-8226 leukemia = system: RPMI-8226 leukemia
IGROV1 ovarian = system: IGROV1 ovarian
SN12C renal = system: SN12C renal
SK-MEL-28 melanoma = system: SK-MEL-28 melanoma
SK-MEL-2 melanoma = system: SK-MEL-2 melanoma
786-0 renal = system: 786-0 renal
KM12 colon = system: KM12 colon
HT29 colon = system: HT29 colon
U251 CNS = system: U251 CNS
UACC-257 melanoma = system: UACC-257 melanoma
T-47D breast = system: T-47D breast
UO-31 renal = system: UO-31 renal
LOX IMVI melanoma = system: LOX IMVI melanoma
DU-145 prostate = system: DU-145 prostate
HOP-62 NSCLC = system: HOP-62 NSCLC
TK-10 renal = system: TK-10 renal
NCI-H522 lung = system: NCI-H522 lung
OVCAR-4 ovarian = system: OVCAR-4 ovarian
PC-3 prostate = system: PC-3 prostate
HOP-92 NSCLC = system: HOP-92 NSCLC
HCT-116 colon = system: HCT-116 colon
SF-539 CNS = system: SF-539 CNS
SR leukemia = system: SR leukemia

CCOC(=O)/C=C(\C)Sc1cc(O)c2ccccc2c1O
TGI (UACC-62 melanoma): 60.1 µM
TGI (RXF 393 renal): 31.9 µM
TGI (MOLT-4 leukemia): > 100 µM
TGI (NCI/ADR-RES ovarian): 86.7 µM
TGI (M14 melanoma): 52.5 µM
TGI (HS 578T breast): > 100 µM
TGI (SNB-19 CNS): 34.1 µM
TGI (OVCAR-5 ovarian): 54.3 µM
TGI (MDA-MB-435): 5.8 µM
TGI (CAKI-1 renal): 46.8 µM
TGI (CCRF-CEM leukemia): > 100 µM
TGI (A549 NSCLC): 85.9 µM
TGI (SK-MEL-5 melanoma): 26.6 µM
TGI (K-562 leukemia): > 100 µM
TGI (COLO 205 colon): 35.1 µM
TGI (ACHN renal): 29.7 µM
TGI (MDA-MB-231 breast): 44.2 µM
TGI (SK-OV-3 ovarian): 66.4 µM
TGI (BT-549 breast): 40.9 µM
TGI (HCC-2998 colon): 28.1 µM
TGI (MALME-3M melanoma): 29.1 µM
TGI (HL-60(TB) leukemia): 88.7 µM
TGI (HCT-15 colon): 37.8 µM
TGI (SNB-75 CNS): 23.8 µM
TGI (OVCAR-3 ovarian): > 100 µM
TGI (NCI-H226 lung): 61.3 µM
TGI (SF-268 CNS): 25 µM
TGI (NCI-H23 lung): > 100 µM
TGI (A498 renal): 41.1 µM
TGI (MCF7 breast): 65.6 µM
TGI (EKVX NSCLC): 81.9 µM
TGI (SF-295 CNS): 51.6 µM
TGI (NCI-H460 lung): 44.6 µM
TGI (OVCAR-8 ovarian): 42.4 µM
TGI (SW-620 colon): > 100 µM
TGI (RPMI-8226 leukemia): > 100 µM
TGI (IGROV1 ovarian): 27.7 µM
TGI (SN12C renal): 83.5 µM
TGI (SK-MEL-28 melanoma): 30.4 µM
TGI (SK-MEL-2 melanoma): 50.5 µM
TGI (786-0 renal): 44.2 µM
TGI (KM12 colon): 75.4 µM
TGI (HT29 colon): 42.9 µM
TGI (U251 CNS): 40.9 µM
TGI (UACC-257 melanoma): 35.6 µM
TGI (T-47D breast): 9.9 µM
TGI (UO-31 renal): 18.9 µM
TGI (LOX IMVI melanoma): 92.2 µM
TGI (DU-145 prostate): > 100 µM
TGI (HOP-62 NSCLC): 39.8 µM
TGI (TK-10 renal): 53.8 µM
TGI (NCI-H522 lung): 24.9 µM
TGI (OVCAR-4 ovarian): 32 µM
TGI (PC-3 prostate): 67.2 µM
TGI (HOP-92 NSCLC): 62.4 µM
TGI (HCT-116 colon): > 100 µM
TGI (SF-539 CNS): 45 µM
TGI (SR leukemia): > 100 µM

Cc1cc(Cl)ccc1Nc1nc(C(F)(F)F)ccc1C(=O)N/N=C/c1cccc(O)c1
GI50 (UACC-62 melanoma): 5.88 µM
TGI (UACC-62 melanoma): 19.5 µM
GI50 (RXF 393 renal): 0.194 µM
TGI (RXF 393 renal): 11.3 µM
GI50 (MOLT-4 leukemia): 1.01 µM
TGI (MOLT-4 leukemia): 3.27 µM
GI50 (NCI/ADR-RES ovarian): 4.78 µM
TGI (NCI/ADR-RES ovarian): 17.6 µM
GI50 (M14 melanoma): 4.53 µM
TGI (M14 melanoma): 17.3 µM
GI50 (HS 578T breast): 2.11 µM
TGI (HS 578T breast): 11.5 µM
GI50 (SNB-19 CNS): 2.37 µM
TGI (SNB-19 CNS): 11.9 µM
GI50 (OVCAR-5 ovarian): 5.96 µM
TGI (OVCAR-5 ovarian): 25 µM
GI50 (MDA-MB-435): 2.17 µM
TGI (MDA-MB-435): 13.7 µM
GI50 (CAKI-1 renal): 0.202 µM
TGI (CAKI-1 renal): 5.98 µM
GI50 (CCRF-CEM leukemia): 0.449 µM
TGI (CCRF-CEM leukemia): 2.41 µM
GI50 (A549 NSCLC): 8.15 µM
TGI (A549 NSCLC): 25.5 µM
GI50 (SK-MEL-5 melanoma): 3.35 µM
TGI (SK-MEL-5 melanoma): 12.6 µM
GI50 (K-562 leukemia): 1.99 µM
TGI (K-562 leukemia): 7.1 µM
GI50 (COLO 205 colon): 1.17 µM
TGI (COLO 205 colon): 9.55 µM
GI50 (ACHN renal): 4.19 µM
TGI (ACHN renal): > 31.8 µM
GI50 (MDA-MB-231 breast): 4.77 µM
TGI (MDA-MB-231 breast): 35.4 µM
GI50 (SK-OV-3 ovarian): 1.23 µM
TGI (SK-OV-3 ovarian): 10.6 µM
GI50 (BT-549 breast): 0.861 µM
TGI (BT-549 breast): 4.24 µM
GI50 (HCC-2998 colon): 3.13 µM
TGI (HCC-2998 colon): 13.8 µM
GI50 (MALME-3M melanoma): 1.75 µM
TGI (MALME-3M melanoma): 8.8 µM
GI50 (HL-60(TB) leukemia): 2.11 µM
TGI (HL-60(TB) leukemia): 4.97 µM
GI50 (HCT-15 colon): 2.51 µM
TGI (HCT-15 colon): 16 µM
GI50 (SNB-75 CNS): 2.07 µM
TGI (SNB-75 CNS): 13.8 µM
GI50 (OVCAR-3 ovarian): 1.48 µM
TGI (OVCAR-3 ovarian): 12.7 µM
GI50 (NCI-H226 lung): 3.74 µM
TGI (NCI-H226 lung): 20.1 µM
GI50 (SF-268 CNS): 1.6 µM
TGI (SF-268 CNS): 12.2 µM
GI50 (NCI-H23 lung): 6.66 µM
TGI (NCI-H23 lung): 20.1 µM
GI50 (A498 renal): 4.23 µM
TGI (A498 renal): 18.1 µM
GI50 (MCF7 breast): 2.21 µM
TGI (MCF7 breast): 12.7 µM
GI50 (EKVX NSCLC): 0.814 µM
TGI (EKVX NSCLC): 7.19 µM
GI50 (SF-295 CNS): 0.159 µM
TGI (SF-295 CNS): 1.1 µM
GI50 (NCI-H460 lung): 3.57 µM
TGI (NCI-H460 lung): 12.8 µM
GI50 (OVCAR-8 ovarian): 1.68 µM
TGI (OVCAR-8 ovarian): 15.3 µM
GI50 (SW-620 colon): 3.39 µM
TGI (SW-620 colon): 14.9 µM
GI50 (RPMI-8226 leukemia): 2.51 µM
TGI (RPMI-8226 leukemia): 9.68 µM
GI50 (IGROV1 ovarian): 3.85 µM
TGI (IGROV1 ovarian): 23.4 µM
GI50 (SN12C renal): 6.77 µM
TGI (SN12C renal): 23.8 µM
GI50 (SK-MEL-28 melanoma): 3.65 µM
TGI (SK-MEL-28 melanoma): 16.8 µM
GI50 (SK-MEL-2 melanoma): 2.09 µM
TGI (SK-MEL-2 melanoma): 12.7 µM
GI50 (786-0 renal): 4.01 µM
TGI (786-0 renal): 13.3 µM
GI50 (KM12 colon): 2.56 µM
TGI (KM12 colon): 11.9 µM
GI50 (HT29 colon): 5.03 µM
TGI (HT29 colon): 16.9 µM
GI50 (U251 CNS): 4.51 µM
TGI (U251 CNS): 19.8 µM
GI50 (UACC-257 melanoma): 11.5 µM
TGI (UACC-257 melanoma): 38.2 µM
GI50 (T-47D breast): 0.112 µM
TGI (T-47D breast): 3.13 µM
GI50 (UO-31 renal): 4.98 µM
TGI (UO-31 renal): 29 µM
GI50 (LOX IMVI melanoma): 3.18 µM
TGI (LOX IMVI melanoma): 13.6 µM
GI50 (DU-145 prostate): 3.66 µM
TGI (DU-145 prostate): 15.2 µM
GI50 (HOP-62 NSCLC): 7.22 µM
TGI (HOP-62 NSCLC): 20.7 µM
GI50 (TK-10 renal): 2.45 µM
TGI (TK-10 renal): 12.3 µM
GI50 (NCI-H522 lung): 8.28 µM
TGI (NCI-H522 lung): > 41 µM
GI50 (OVCAR-4 ovarian): 1.13 µM
TGI (OVCAR-4 ovarian): 14.6 µM
GI50 (PC-3 prostate): 2.96 µM
TGI (PC-3 prostate): 12.9 µM
GI50 (HOP-92 NSCLC): 3.36 µM
TGI (HOP-92 NSCLC): 13.9 µM
GI50 (HCT-116 colon): 4.42 µM
TGI (HCT-116 colon): 16.5 µM
GI50 (SF-539 CNS): 4.38 µM
TGI (SF-539 CNS): 15.8 µM
GI50 (SR leukemia): 0.836 µM
TGI (SR leukemia): 4.49 µM
